The results in this text go back to PubChem BioAssay AID1259407 (Chemical Carcinogenesis Research Information System (CCRIS), 2018).

This data set deals with CCRIS mutagenicity, Ames/micronucleus/aberration tests. In words: CCRIS mutagenicity studies.
The mark [1] stands for this setting: Test System: AMES SALMONELLA TYPHIMURIUM, Strain/Indicator: TA98, Metabolic Activation: NONE, Method: STANDARD PLATE.
Where [2] appears, read: Test System: AMES SALMONELLA TYPHIMURIUM, Strain/Indicator: TA100, Metabolic Activation: NONE, Method: STANDARD PLATE.
Setting [3] is: Test System: AMES SALMONELLA TYPHIMURIUM, Strain/Indicator: TA100, Metabolic Activation: S-9, Method: STANDARD PLATE.
Where [4] appears, read: Test System: AMES SALMONELLA TYPHIMURIUM, Strain/Indicator: TA1535, Metabolic Activation: NONE, Method: STANDARD PLATE.
The mark [5] stands for this setting: Test System: AMES SALMONELLA TYPHIMURIUM, Strain/Indicator: TA1537, Metabolic Activation: NONE, Method: STANDARD PLATE.
[6] abbreviates: Test System: AMES SALMONELLA TYPHIMURIUM, Strain/Indicator: TA1537, Metabolic Activation: S-9, Method: STANDARD PLATE.

Activity calls are given as the source filed them. The rule behind the calls is not given here.

Turning to `CC(C)CCNc1snc2ccccc12`, the mutagenic call is “inactive; negative” under setting [1]; “inactive; negative” (Test System: AMES SALMONELLA TYPHIMURIUM, Strain/Indicator: TA98, Metabolic Activation: S-9, Method: STANDARD PLATE); “inactive; negative” under setting [2]; “inactive; negative” under setting [3]; “inactive; negative” under setting [4]; “inactive; negative” (Test System: AMES SALMONELLA TYPHIMURIUM, Strain/Indicator: TA1535, Metabolic Activation: S-9, Method: STANDARD PLATE). In addition, the mutagenic call runs as follows: under setting [5], “inactive; negative”; under setting [6], “inactive; negative”.

As for `C[C@@H]1NCCc2cc(O)c(O)cc21`, the mutagenic call reads like this: (End Point: IN VITRO CHROMOSOMAL ABERRATIONS, Test System: CHL FIBROBLAST CELLS, Metabolic Activation: NONE) “active; positive”; (End Point: IN VITRO CHROMOSOMAL ABERRATIONS, Test System: CHL FIBROBLAST CELLS, Metabolic Activation: RAT, LIVER, S-9 (5%)) “inactive; negative”.

Consider `CCCC(=O)Nc1snc2cc(Cl)ccc12`, for which the mutagenic call reads like this: under setting [2], “inactive; negative”; under setting [3], “inactive; negative”; under setting [5], “inactive; negative”; under setting [6], “inactive; negative”.

On to `CC(C)(C)OC(=O)O/N=C(/C#N)c1ccccc1`, for which the mutagenic call is “inactive; negative” under setting [1]; “inactive; negative” (Test System: AMES SALMONELLA TYPHIMURIUM, Strain/Indicator: TA98, Metabolic Activation: RAT, LIVER, S-9, AROCLOR 1254, Method: STANDARD PLATE); “inactive; negative” under setting [2]; “inactive; negative” (Test System: AMES SALMONELLA TYPHIMURIUM, Strain/Indicator: TA100, Metabolic Activation: RAT, LIVER, S-9, AROCLOR 1254, Method: STANDARD PLATE); “inactive; negative” under setting [4]; “inactive; negative” (Test System: AMES SALMONELLA TYPHIMURIUM, Strain/Indicator: TA1535, Metabolic Activation: RAT, LIVER, S-9, AROCLOR 1254, Method: STANDARD PLATE). Besides, the mutagenic call by setting is: under setting [5], “inactive; negative”; (Test System: AMES SALMONELLA TYPHIMURIUM, Strain/Indicator: TA1537, Metabolic Activation: RAT, LIVER, S-9, AROCLOR 1254, Method: STANDARD PLATE) “inactive; negative”.

On to `CCCCCC(=O)O`, for which the mutagenic call (Test System: AMES SALMONELLA TYPHIMURIUM, Strain/Indicator: TA97, Metabolic Activation: NONE, Method: PREINCUBATION) is “inactive; negative”; the mutagenic call (Test System: AMES SALMONELLA TYPHIMURIUM, Strain/Indicator: TA97, Metabolic Activation: RAT, LIVER, S-9, AROCLOR 1254, Method: PREINCUBATION) was “inactive; negative”; the mutagenic call (Test System: AMES SALMONELLA TYPHIMURIUM, Strain/Indicator: TA102, Metabolic Activation: NONE, Method: PREINCUBATION) is “inactive; negative”; the mutagenic call (Test System: AMES SALMONELLA TYPHIMURIUM, Strain/Indicator: TA102, Metabolic Activation: RAT, LIVER, S-9, AROCLOR 1254, Method: PREINCUBATION) was “inactive; negative”.

With `CC(O)CC(C)(C)O` (configuration not stated), the mutagenic call by setting is: (Test System: Ames Salmonella typhimurium, Strain/Indicator: TA98, Metabolic Activation: None, Method: Preincubation) “inactive; negative”; (Test System: Ames Salmonella typhimurium, Strain/Indicator: TA98, Metabolic Activation: Rat, Liver, S9, Sodium phenobarbital and 5,6-benzoflavone (10%), Method: Preincubation) “inactive; negative”; (Test System: Ames Salmonella typhimurium, Strain/Indicator: TA100, Metabolic Activation: None, Method: Preincubation) “inactive; negative”; (Test System: Ames Salmonella typhimurium, Strain/Indicator: TA100, Metabolic Activation: Rat, Liver, S9, Sodium phenobarbital and 5,6-benzoflavone (10%), Method: Preincubation) “inactive; negative”; (Test System: Ames Salmonella typhimurium, Strain/Indicator: TA1535, Metabolic Activation: None, Method: Preincubation) “inactive; negative”; (Test System: Ames Salmonella typhimurium, Strain/Indicator: TA1535, Metabolic Activation: Rat, Liver, S9, Sodium phenobarbital and 5,6-benzoflavone (10%), Method: Preincubation) “inactive; negative”. The mutagenic call by setting is: (Test System: Ames Salmonella typhimurium, Strain/Indicator: TA1537, Metabolic Activation: None, Method: Preincubation) “inactive; negative”; (Test System: Ames Salmonella typhimurium, Strain/Indicator: TA1537, Metabolic Activation: Rat, Liver, S9, Sodium phenobarbital and 5,6-benzoflavone (10%), Method: Preincubation) “inactive; negative”; (Test System: E. coli, Strain/Indicator: WP2uvrA/pKM101, Metabolic Activation: None, Method: Preincubation) “inactive; negative”; (Test System: E. coli, Strain/Indicator: WP2uvrA/pKM101, Metabolic Activation: Rat, Liver, S9, Sodium Phenobarbital and 5,6-benzoflavone (10%), Method: Preincubation) “inactive; negative”.

`CNC(=O)C=Cc1ccc([N+](=O)[O-])o1`: under “Test System: AMES SALMONELLA TYPHIMURIUM, Strain/Indicator: TA98, Metabolic Activation: NONE, Method: PREINCUBATION”, the mutagenic call was “active; positive”.
